Columns and labels:
Type in all cases: in vivo
[1] = system: ABUTH, Velvetleaf, Abutilon theophrasti, Medic.; assay: Postemergence herbicidal evaluation (Example 147); conditions: rating scale 0-9, two to three weeks after treatment
Method in brief: (§1)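 Visual 0-9 rating against an untreated control, scored roughly two to three weeks after a postemergence spray of two-week-old seedlings. Dose equivalent about 0.016 to 0.032 kg/ha, delivered in 80/20 acetone/water with 1.0% SUN-IT II at 40 psi.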

[2] = system: ALOMY, Blackgrass, Alopecurus myosuroides; assay: Postemergence herbicidal evaluation (Example 147); conditions: rating scale 0-9, two to three weeks after treatment
Method in brief: as §1

[3] = system: AMBEL, Ragweed, Common, Ambrosia artemiisifolia, L.; assay: Postemergence herbicidal evaluation (Example 147); conditions: rating scale 0-9, two to three weeks after treatment
Method in brief: as §1

[4] = system: CHEAL, Lambsquarters, Chenopodium album, L. Common; assay: Postemergence herbicidal evaluation (Example 147); conditions: rating scale 0-9, two to three weeks after treatment
Method in brief: as §1

[5] = system: DIGSA, Crabgrass, (Hairy) L, Digitaria sanguinalis, (L)Scop; assay: Postemergence herbicidal evaluation (Example 147); conditions: rating scale 0-9, two to three weeks after treatment
Method in brief: as §1

[6] = system: ECHCG, Barnyardgrass, Echinochloa crusgalli, (L.)Beau; assay: Postemergence herbicidal evaluation (Example 147); conditions: rating scale 0-9, two to three weeks after treatment
Method in brief: as §1

[7] = system: GLXMA, Soybean, Glycine max, (L.) Merr.; assay: Postemergence herbicidal evaluation (Example 147); conditions: rating scale 0-9, two to three weeks after treatment
Method in brief: as §1

[8] = system: IPOHE, Morningglory, Ivyleaf, Ipomoea hederacea, (L)Jacq.; assay: Postemergence herbicidal evaluation (Example 147); conditions: rating scale 0-9, two to three weeks after treatment
Method in brief: as §1

[9] = system: SETVI, Green foxtail, Setaria viridis, (L.)Beau; assay: Postemergence herbicidal evaluation (Example 147); conditions: rating scale 0-9, two to three weeks after treatment
Method in brief: as §1

[10] = system: TRZAW, Winter wheat, Tritium Aestivum, L. (Winter); assay: Postemergence herbicidal evaluation (Example 147); conditions: rating scale 0-9, two to three weeks after treatment
Method in brief: as §1

[11] = system: XANST, Cocklebur, Xanthium strumariam; assay: Postemergence herbicidal evaluation (Example 147); conditions: rating scale 0-9, two to three weeks after treatment
Method in brief: as §1

[12] = system: ZEAMX, Field corn, Zea mays L.; assay: Postemergence herbicidal evaluation (Example 147); conditions: rating scale 0-9, two to three weeks after treatment
Method in brief: as §1

[13] = system: ABUTH, Velvetleaf, Abutilon theophrasti, Medic.; assay: Preemergence herbicidal evaluation (Example 148); conditions: rating scale 0-9, two to four weeks after treatment
Method in brief: (§2)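 Each species was planted separately in cups, its seed mixed into potting soil over roughly an inch of soil. Spraying with compound in aqueous acetone followed planting (~0.125–0.250 kg/ha). Overall appearance, chlorosis and stand were compared with a control after 2–4 weeks.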

[14] = system: ALOMY, Blackgrass, Alopecurus myosuroides; assay: Preemergence herbicidal evaluation (Example 148); conditions: rating scale 0-9, two to four weeks after treatment
Method in brief: as §2

[15] = system: AMBEL, Ragweed, Common, Ambrosia artemiisifolia, L.; assay: Preemergence herbicidal evaluation (Example 148); conditions: rating scale 0-9, two to four weeks after treatment
Method in brief: as §2

[16] = system: CHEAL, Lambsquarters, Chenopodium album, L. Common; assay: Preemergence herbicidal evaluation (Example 148); conditions: rating scale 0-9, two to four weeks after treatment
Method in brief: as §2

[17] = system: DIGSA, Crabgrass, (Hairy) L, Digitaria sanguinalis, (L)Scop; assay: Preemergence herbicidal evaluation (Example 148); conditions: rating scale 0-9, two to four weeks after treatment
Method in brief: as §2

[18] = system: ECHCG, Barnyardgrass, Echinochloa crusgalli, (L.)Beau; assay: Preemergence herbicidal evaluation (Example 148); conditions: rating scale 0-9, two to four weeks after treatment
Method in brief: as §2

[19] = system: GLXMA, Soybean, Glycine max, (L.) Merr.; assay: Preemergence herbicidal evaluation (Example 148); conditions: rating scale 0-9, two to four weeks after treatment
Method in brief: as §2

[20] = system: IPOHE, Morningglory, Ivyleaf, Ipomoea hederacea, (L)Jacq.; assay: Preemergence herbicidal evaluation (Example 148); conditions: rating scale 0-9, two to four weeks after treatment
Method in brief: as §2

[21] = system: SETVI, Green foxtail, Setaria viridis, (L.)Beau; assay: Preemergence herbicidal evaluation (Example 148); conditions: rating scale 0-9, two to four weeks after treatment
Method in brief: as §2

[22] = system: TRZAW, Winter wheat, Tritium Aestivum, L. (Winter); assay: Preemergence herbicidal evaluation (Example 148); conditions: rating scale 0-9, two to four weeks after treatment
Method in brief: as §2

[23] = system: XANST, Cocklebur, Xanthium strumariam; assay: Preemergence herbicidal evaluation (Example 148); conditions: rating scale 0-9, two to four weeks after treatment
Method in brief: as §2

[24] = system: ZEAMX, Field corn, Zea mays L.; assay: Preemergence herbicidal evaluation (Example 148); conditions: rating scale 0-9, two to four weeks after treatment
Method in brief: as §2

`CC(C)N(C(C)C)S(=O)(=O)NC(=O)c1cc(-n2c(=O)cc(C(F)(F)F)n(C)c2=O)c(F)cc1Cl` [Example 60] was tested, and the “Postemergence herbicidal rating ABUTH” value ([1]; rate 0.016 kg/ha) was 9.0, the “Postemergence herbicidal rating ABUTH” value ([1]; rate 0.032 kg/ha) was 9.0 and the “Postemergence herbicidal rating ALMOY” value ([2]; rate 0.016 kg/ha) was 3.0. The “Postemergence herbicidal rating ALMOY” value ([2]; rate 0.032 kg/ha) was 3.0, the “Postemergence herbicidal rating AMBEL” value ([3]; rate 0.016 kg/ha) was 9.0 and the “Postemergence herbicidal rating AMBEL” value ([3]; rate 0.032 kg/ha) was 9.0. The “Postemergence herbicidal rating CHEAL” value ([4]; rate 0.016 kg/ha) was 8.0, the “Postemergence herbicidal rating CHEAL” value ([4]; rate 0.032 kg/ha) was 9.0 and the “Postemergence herbicidal rating DIGSA” value ([5]; rate 0.016 kg/ha) was 6.0. For the same compound, the “Postemergence herbicidal rating DIGSA” value ([5]; rate 0.032 kg/ha) was 7.0, the “Postemergence herbicidal rating ECHCG” value ([6]; rate 0.016 kg/ha) was 8.0 and the “Postemergence herbicidal rating ECHCG” value ([6]; rate 0.032 kg/ha) was 7.0. The “Postemergence herbicidal rating GLXMA” value ([7]; rate 0.016 kg/ha) was 8.5, the “Postemergence herbicidal rating GLXMA” value ([7]; rate 0.032 kg/ha) was 8.5 and the “Postemergence herbicidal rating IPOHE” value ([8]; rate 0.016 kg/ha) was 9.0. The “Postemergence herbicidal rating IPOHE” value ([8]; rate 0.032 kg/ha) was 9.0, the “Postemergence herbicidal rating SETVI” value ([9]; rate 0.016 kg/ha) was 8.0 and the “Postemergence herbicidal rating SETVI” value ([9]; rate 0.032 kg/ha) was 9.0. The “Postemergence herbicidal rating TRZAW” value ([10]; rate 0.016 kg/ha) was 6.0, the “Postemergence herbicidal rating TRZAW” value ([10]; rate 0.032 kg/ha) was 6.0 and the “Postemergence herbicidal rating XANST” value ([11]; rate 0.016 kg/ha) was 9.0. The “Postemergence herbicidal rating XANST” value ([11]; rate 0.032 kg/ha) was 9.0, the “Postemergence herbicidal rating ZEAMX” value ([12]; rate 0.016 kg/ha) was 8.0 and the “Postemergence herbicidal rating ZEAMX” value ([12]; rate 0.032 kg/ha) was 8.0. The “Preemergence herbicidal rating ABUTH” value ([13]; rate 0.125 kg/ha) was 9.0, the “Preemergence herbicidal rating ABUTH” value ([13]; rate 0.25 kg/ha) was 9.0 and the “Preemergence herbicidal rating ALMOY” value ([14]; rate 0.125 kg/ha) was 0.0. The “Preemergence herbicidal rating ALMOY” value ([14]; rate 0.25 kg/ha) was 0.0, the “Preemergence herbicidal rating AMBEL” value ([15]; rate 0.125 kg/ha) was 9.0 and the “Preemergence herbicidal rating AMBEL” value ([15]; rate 0.25 kg/ha) was 9.0. For the same compound, the “Preemergence herbicidal rating CHEAL” value ([16]; rate 0.125 kg/ha) was 9.0, the “Preemergence herbicidal rating CHEAL” value ([16]; rate 0.25 kg/ha) was 9.0 and the “Preemergence herbicidal rating DIGSA” value ([17]; rate 0.125 kg/ha) was 6.0. For the same compound, the “Preemergence herbicidal rating DIGSA” value ([17]; rate 0.25 kg/ha) was 6.0, the “Preemergence herbicidal rating ECHCG” value ([18]; rate 0.125 kg/ha) was 0.0 and the “Preemergence herbicidal rating ECHCG” value ([18]; rate 0.25 kg/ha) was 4.0. The “Preemergence herbicidal rating GLXMA” value ([19]; rate 0.125 kg/ha) was 0.0, the “Preemergence herbicidal rating GLXMA” value ([19]; rate 0.25 kg/ha) was 6.0 and the “Preemergence herbicidal rating IPOHE” value ([20]; rate 0.125 kg/ha) was 7.0. The “Preemergence herbicidal rating IPOHE” value ([20]; rate 0.25 kg/ha) was 6.0, the “Preemergence herbicidal rating SETVI” value ([21]; rate 0.125 kg/ha) was 5.0 and the “Preemergence herbicidal rating SETVI” value ([21]; rate 0.25 kg/ha) was 9.0. The “Preemergence herbicidal rating TRZAW” value ([22]; rate 0.125 kg/ha) was 0.0, the “Preemergence herbicidal rating TRZAW” value ([22]; rate 0.25 kg/ha) was 0.0 and the “Preemergence herbicidal rating XANST” value ([23]; rate 0.125 kg/ha) was 0.0. For the same compound, the “Preemergence herbicidal rating XANST” value ([23]; rate 0.25 kg/ha) was 4.0, the “Preemergence herbicidal rating ZEAMX” value ([24]; rate 0.125 kg/ha) was 0.0 and the “Preemergence herbicidal rating ZEAMX” value ([24]; rate 0.25 kg/ha) was 0.0.

Reference: patent publication US6689773B2, “Uracil substituted phenyl sulfamoyl carboxamides” (BASF Aktiengesellschaft, priority 2000, dated 2004)
